Reference: patent publication EP0022969A1, “Antimycotic compositions containing azolylalkenols and their preparation” (BAYER AG, priority 1979, dated 1981)

The compounds below were run on Trichophyton mentagrophytes (assay: Antimicrobial in vivo activity (local) in experimental guinea pig trichophytosis). Details: guinea pigs infected with Trichophyton mentagrophytes; 1% solution in DMSO:glycerol 1:4, local, once daily from day 3 p.i.; meaning only slight redness and isolated scales, or no signs of infection.
Parameters: species or system Meerschweinchen der Rasse Pirbright-white
From the text: Weiße Meerschweinchen der Rasse Pirbright-white wurden auf dem geschorenen, nicht skarifizierten Rücken mit einer Mikro- und Makrokonidien-Suspension von Trichophyton mentagrophytes infiziert.
Die infizierten Tiere wurden, beginnend mit dem 3.Tag p.i., 1 x täglich mit 1%-iger Lösung der erfindungsgemäßen Präparate (in Dimethylsulfoxid:Glycerin=1:4) lokal behandelt.
Bei unbehandelten Tieren entwickelt sich innerhalb von 12 Tagen p.i. das typische Bild einer Dermatophytose mit Rötung, Schuppung und Haarausfall bis zum totalen Integument-Defekt an der Infektionsstelle.
In the case of `CC(C)(C)C(O)C(=Cn1ccnc1)Oc1ccccc1Cl` (stereo not drawn) [Beispiel 5], the “Wirkung (Infektionszeichen)” value was “gute bis sehr gute Wirkung”. `CC(C)(C)C(O)C(=Cn1ccnc1)Oc1ccc(F)cc1` (stereo not drawn) [Beispiel 1] was tested, and the “Wirkung (Infektionszeichen)” value was “gute bis sehr gute Wirkung”. With `CC(C)(C)C(O)C(=Cn1ccnc1)Oc1ccc(F)cc1Cl` (stereo not drawn) [Beispiel 9] the “Wirkung (Infektionszeichen)” value was “gute bis sehr gute Wirkung”.
